Legend:
[1] = system: MM1R myeloma target cells; experiment: PBMC-mediated MM1R target cell killing, first experiment (48 hrs, 3 μM pomalidomide); assay type: cell-based; conditions: combined with Pomalidomide, benchmarked against elotuzumab and WT-BCMA, N=2
Experimental: Experiments were performed to test whether SEA-BCMA combines effectively with pomalidomide in vitro by combining PBMC effector cells with MM1R target cells treated with both pomalidomide and SEA-BCMA or antibody controls. The first experiment (FIG. 12A) benchmarks against MM standard of care elotuzumab and nonfucosylated parent BCMA antibody. The second experiment (FIG. 12B) benchmarks against MM standard of care daratumumab. MM1R target cells express 15,000 copies of BCMA, 12,000 copies of CS1 (elotuzumab target), and 36,000 copies of CD38 (daratumumab target).
In the first experiment (FIG. 12A), normal donor PBMCs of the FcγRIII V/F genotype were mixed with CFSE (Invitrogen cat #V12883) labeled MM1R myeloma target cells at an effector-to-target cell ratio of 10:1. The mixture was treated with a dose range of the following antibodies: SEA-BCMA, elotuzumab, WT-BCMA (fucosylated parent Ab), or non-binding hIgG1k antibody control (Sigma cat #15154) with or without 3 μM pomalidomide (APEx Bio, cat #A4211). After 48 hrs, the % live MM1R cells were then determined using the viability dye 7-AAD (BD Biosciences, cat #559925) by flow cytometry.

Molp-8 MM target cells = experiment: ADCC 51Cr release assay with NK effector cells; assay type: cell-based; conditions: Molp-8, with vs without 0.2 μM Nirogacestat, NK cells 10:1, 4 h
Experimental: Whether the enhanced FcγRIII signaling translated to increased lysis of MM target cells by SEA-BCMA was determined. Molp-8 MM target cells were incubated with and without 0.2 μM Nirogacestat (purchased from SelleckChem) for 24 hrs. Cells were then Na2 [^51Cr] O4 labeled and added to titrations of SEA-BCMA, or isotype antibody control. Effector cells, NK cells enriched from normal donor PBMC, were added at an effector-to-target cell ratio of 10:1 (50,000:5000). Donor NK cells were of the high affinity FcγRIII V/V genotype. The combination of antibodies, NK cells and target cells were incubated for 4 h at 37° C. with and without Nirogacestat. The radioactivity released into the culture supernatant of lysed target cells was then measured and the percent specific cell lysis calculated. […] This is the primary of mechanism of action of SEA-BCMA and translates to specific enhanced anti-MM lysis. It is expected that this will translate to improvements in anti-MM activity in the clinic when SEA-BCMA is combined with GSIs.

[2] = system: relapsed or refractory multiple myeloma (RRMM); experiment: Clinical antitumor activity (IMWG response, serum free light chain); assay type: in vivo, human
Experimental: Response assessment included SPEP/immunofixation, UPEP/immunofixation (in patients with a baseline urine M protein ≥200 mg/24 hour or for assessment of VGPR or better), SFLC, quantitative immunoglobulins, and plasmacytoma evaluation by imaging (at baseline, every 4 cycles, and at additional time points if clinically indicated). These samples were collected for local assessment. In addition, blood were analyzed in the central laboratory using a modified SPEP for patients with IgG myeloma.
The determination of antitumor activity were based on response assessments made according to the 2016 IMWG Criteria (Kumar et al., Lancet Oncol 17(8): e328-46, 2016) and treatment decisions by the investigator were based on these assessments. Clinical response of sCR, CR, VGPR, PR, SD, and PD were determined at each assessment based on local laboratory (and the modified SPEP run by the central laboratory for patients with IgG MM), radiological, and clinical evaluations. Progressive disease was based on IMWG 2016 criteria and/or clinical disease progression per investigator. All IMWG responses were confirmed responses. When applicable, determination of immunophenotypic CR, MRD status, and minimal response were made per the IMWG 2016 criteria.
Kappa and lambda free light chains were quantified in serum of patients as surrogate markers of antitumor activity.
A patient was determined to have an OR if, based on the 2016 IMWG uniform response criteria, they achieve a sCR, CR, VGPR, or a PR. The ORR is defined as the proportion of patients with an OR per investigator. Patients whose disease response could not be evaluated per the 2016 IMWG uniform response criteria were scored as Not Evaluable for calculating the ORR.

[3] = Pharmacokinetic analysis of SEA-BCMA serum concentration in patients
NF-κB p65 = NF-κB p65 activity ELISA on nuclear extract; assay type: cell-based; conditions: NCI-H929, 20 μg/mL SEA-BCMA, 0.2 μM Nirogacestat
Experimental: The secondary mechanism of action of SEA-BCMA is to block BCMA proliferative cell signaling. Increased BCMA from GSI treatment is expected to induce increased BCMA signaling. Therefore, the block of this enhanced signaling by SEA-BCMA was tested. BCMA-expressing NCI-H929 cells were serum-starved with and without 0.2 μM Nirogacestat (purchased from SelleckChem) for 16 hrs. Cells were then bound with and without 20 μg/mL SEA-BCMA and incubated with and without 1 μg/ml recombinant human APRIL (R&D Systems) for 20 minutes at 37° C. in the presence or absence of 0.2 μM Nirogacestat. 1 μg of nuclear extract was assayed in duplicate for NF-κB p65 activity by ELISA (TransAM NFκB Chemi p65, Active Motif).

## SEA-BCMA: non-fucosylated monoclonal anti-BCMA antibody having heavy chain SEQ ID NO: 13 and light chain SEQ ID NO: 15
[1]
  MM1R target cell killing: greater MM1R target cell killing
Molp-8 MM target cells
  ADCC (specific cell lysis): Increased ADCC
[2]; 1600 mg per dose once every 2 weeks vs 100-800 mg
  response by dose level: highest overall confirmed response rate
[2]; Patient A, 1600 mg every two weeks, 7 prior lines
  response assessment: very good partial response (VGPR)
[2]; Patient A, 1600 mg every two weeks, after the first dose
  time to which low level of sFLC was maintained: ≥ 40 days
[2]; all dose levels (100-1600 mg), after a minimum of 3 cycles of treatment
  response: stable disease was observed
[2]; among 3 response evaluable patients, 1600 mg
  patients with confirmed very good partial response (VGPR): 1 patient
[2]; combination with dexamethasone, SEA-BCMA Day 1 and 15, dexamethasone Day 1, 8, 15, 22 of 28-day cycle
  response: Confirmed responses were also observed
[2]; intensive dosing: 1600 mg q1wk for 8 doses, then once every two weeks
  response: Confirmed responses were also observed
[2]; patient (Patient A), one week after first 1600 mg dose
  decrease of serum free light chain (sFLC) level: about 90%
[2]; patient, 200 mg escalated to 1600 mg, 8 prior lines
  response: maintaining stable disease even 10 months after commencement of treatment
[3]; Q2W dosing
  time at which PK reaches steady state: steady state at cycle 3
[3]; after Q2W dosing
  accumulation at steady state: approximately 70%
NF-κB p65
  block of Nirogacestat-increased NF-κB signaling: partially blocked

Source: patent US20230118517A1, “METHODS OF TREATING MULTIPLE MYELOMA” (Seagen Inc., priority 2020, published 2023)
